Measurements from the NIST ThermoML archive (doi:10.1021/je900387e).
Numbers after ± are expanded uncertainties.

Assay: xn = mol fraction of the nth substance listed
Conditions: Liquid, Pycnometric method

Cn1ccnc1 [1-methylimidazole] + O=C=O
Conditions | mass density [kg/m3]
322.7 K, 12990 kPa, x1 = 0.0487 | 807 ± 4
322.7 K, 13020 kPa, x1 = 0.0247 | 755 ± 4
322.7 K, 13030 kPa, x1 = 0.0102 | 707 ± 4
322.7 K, 13120 kPa, x1 = 0.0487 | 809 ± 4
322.7 K, 13250 kPa, x1 = 0.0487 | 812 ± 4
322.7 K, 13310 kPa, x1 = 0.0247 | 762 ± 4
322.7 K, 13480 kPa, x1 = 0.0102 | 723 ± 4
322.7 K, 13500 kPa, x1 = 0.0487 | 817 ± 4
322.7 K, 13620 kPa, x1 = 0.0247 | 770 ± 4
322.7 K, 13790 kPa, x1 = 0.0487 | 822 ± 4
322.7 K, 13950 kPa, x1 = 0.0247 | 777 ± 4
322.7 K, 14040 kPa, x1 = 0.0102 | 740 ± 4
322.7 K, 14080 kPa, x1 = 0.0487 | 827 ± 4
322.7 K, 14340 kPa, x1 = 0.0247 | 786 ± 4
322.7 K, 14370 kPa, x1 = 0.0487 | 832 ± 4
322.7 K, 14510 kPa, x1 = 0.0102 | 753 ± 4
322.7 K, 14640 kPa, x1 = 0.1024 | 909 ± 4
322.7 K, 14710 kPa, x1 = 0.0487 | 838 ± 4
322.7 K, 14750 kPa, x1 = 0.0247 | 794 ± 4
322.7 K, 14780 kPa, x1 = 0.1024 | 911 ± 4
322.7 K, 14920 kPa, x1 = 0.1024 | 912 ± 4
322.7 K, 15030 kPa, x1 = 0.1024 | 913 ± 4
322.7 K, 15070 kPa, x1 = 0.0487 | 843 ± 4
322.7 K, 15180 kPa, x1 = 0.1024 | 915 ± 4
322.7 K, 15200 kPa, x1 = 0.0247 | 802 ± 4
322.7 K, 15260 kPa, x1 = 0.0102 | 771 ± 4
322.7 K, 15290 kPa, x1 = 0.1024 | 916 ± 4
322.7 K, 15430 kPa, x1 = 0.0487 | 849 ± 4
322.7 K, 15470 kPa, x1 = 0.1024 | 917 ± 4
322.7 K, 15590 kPa, x1 = 0.1024 | 918 ± 4
322.7 K, 15690 kPa, x1 = 0.0247 | 810 ± 4
322.7 K, 15860 kPa, x1 = 0.0487 | 855 ± 4
322.7 K, 15900 kPa, x1 = 0.1024 | 922 ± 4
322.7 K, 16070 kPa, x1 = 0.0247 | 816 ± 4
322.7 K, 16210 kPa, x1 = 0.0102 | 790 ± 4
322.7 K, 16230 kPa, x1 = 0.1024 | 924 ± 4
322.7 K, 16280 kPa, x1 = 0.0487 | 860 ± 4
322.7 K, 16530 kPa, x1 = 0.1024 | 927 ± 4
322.7 K, 16540 kPa, x1 = 0.0247 | 824 ± 4
322.7 K, 16700 kPa, x1 = 0.0487 | 866 ± 4
322.7 K, 16830 kPa, x1 = 0.0247 | 828 ± 4
322.7 K, 16880 kPa, x1 = 0.1024 | 929 ± 4
322.7 K, 17020 kPa, x1 = 0.0102 | 805 ± 4
322.7 K, 17160 kPa, x1 = 0.0247 | 833 ± 4
322.7 K, 17180 kPa, x1 = 0.1024 | 933 ± 4
322.7 K, 17340 kPa, x1 = 0.1024 | 934 ± 4
322.7 K, 17490 kPa, x1 = 0.0247 | 837 ± 4
322.7 K, 17570 kPa, x1 = 0.1024 | 936 ± 4
322.7 K, 17750 kPa, x1 = 0.1024 | 937 ± 4
322.7 K, 17830 kPa, x1 = 0.0247 | 842 ± 4
322.7 K, 17920 kPa, x1 = 0.1024 | 939 ± 4
322.7 K, 17960 kPa, x1 = 0.0102 | 821 ± 4
322.7 K, 18120 kPa, x1 = 0.1024 | 940 ± 4
322.7 K, 18150 kPa, x1 = 0.0102 | 824 ± 4
322.7 K, 18330 kPa, x1 = 0.1024 | 942 ± 4
322.7 K, 18570 kPa, x1 = 0.1024 | 943 ± 4
322.7 K, 18770 kPa, x1 = 0.1024 | 945 ± 4
322.7 K, 18990 kPa, x1 = 0.1024 | 946 ± 4
327.6 K, 11610 kPa, x1 = 0.0102 | 548 ± 4
327.6 K, 11720 kPa, x1 = 0.0102 | 558 ± 4
327.6 K, 11840 kPa, x1 = 0.0102 | 568 ± 4
327.6 K, 11970 kPa, x1 = 0.0102 | 578 ± 4
327.6 K, 12110 kPa, x1 = 0.0102 | 589 ± 4
327.6 K, 12270 kPa, x1 = 0.0102 | 600 ± 4
327.6 K, 12440 kPa, x1 = 0.0102 | 612 ± 4
327.6 K, 12510 kPa, x1 = 0.0247 | 682 ± 4
327.6 K, 12630 kPa, x1 = 0.0102 | 624 ± 4
327.6 K, 12630 kPa, x1 = 0.0247 | 687 ± 4
327.6 K, 12720 kPa, x1 = 0.0247 | 691 ± 4
327.6 K, 12850 kPa, x1 = 0.0102 | 636 ± 4
327.6 K, 12890 kPa, x1 = 0.0247 | 698 ± 4
327.6 K, 13060 kPa, x1 = 0.0247 | 704 ± 4
327.6 K, 13110 kPa, x1 = 0.0102 | 649 ± 4
327.6 K, 13250 kPa, x1 = 0.0247 | 711 ± 4
327.6 K, 13400 kPa, x1 = 0.0102 | 663 ± 4
327.6 K, 13460 kPa, x1 = 0.0247 | 718 ± 4
327.6 K, 13670 kPa, x1 = 0.0247 | 724 ± 4
327.6 K, 13730 kPa, x1 = 0.0102 | 677 ± 4
327.6 K, 13900 kPa, x1 = 0.0247 | 731 ± 4
327.6 K, 14110 kPa, x1 = 0.0102 | 692 ± 4
327.6 K, 14140 kPa, x1 = 0.0247 | 738 ± 4
327.6 K, 14190 kPa, x1 = 0.0487 | 791 ± 4
327.6 K, 14340 kPa, x1 = 0.0487 | 795 ± 4
327.6 K, 14410 kPa, x1 = 0.0247 | 745 ± 4
327.6 K, 14560 kPa, x1 = 0.0102 | 707 ± 4
327.6 K, 14570 kPa, x1 = 0.0487 | 799 ± 4
327.6 K, 14710 kPa, x1 = 0.0247 | 753 ± 4
327.6 K, 14830 kPa, x1 = 0.0487 | 804 ± 4
327.6 K, 15010 kPa, x1 = 0.0247 | 760 ± 4
327.6 K, 15080 kPa, x1 = 0.0487 | 809 ± 4
327.6 K, 15100 kPa, x1 = 0.0102 | 723 ± 4
327.6 K, 15270 kPa, x1 = 0.0247 | 766 ± 4
327.6 K, 15370 kPa, x1 = 0.0487 | 814 ± 4
327.6 K, 15550 kPa, x1 = 0.0247 | 772 ± 4
327.6 K, 15660 kPa, x1 = 0.0487 | 819 ± 4
327.6 K, 15730 kPa, x1 = 0.0102 | 740 ± 4
327.6 K, 15940 kPa, x1 = 0.0487 | 825 ± 4
327.6 K, 15970 kPa, x1 = 0.0247 | 779 ± 4
327.6 K, 16080 kPa, x1 = 0.1024 | 899 ± 4
327.6 K, 16170 kPa, x1 = 0.1024 | 900 ± 4
327.6 K, 16280 kPa, x1 = 0.0487 | 829 ± 4
327.6 K, 16300 kPa, x1 = 0.1024 | 901 ± 4
327.6 K, 16400 kPa, x1 = 0.0247 | 787 ± 4
327.6 K, 16420 kPa, x1 = 0.1024 | 903 ± 4
327.6 K, 16460 kPa, x1 = 0.0102 | 758 ± 4
327.6 K, 16540 kPa, x1 = 0.1024 | 904 ± 4
327.6 K, 16640 kPa, x1 = 0.0247 | 791 ± 4
327.6 K, 16650 kPa, x1 = 0.0487 | 836 ± 4
327.6 K, 16650 kPa, x1 = 0.1024 | 905 ± 4
327.6 K, 16780 kPa, x1 = 0.1024 | 906 ± 4
327.6 K, 16930 kPa, x1 = 0.1024 | 908 ± 4
327.6 K, 16980 kPa, x1 = 0.0247 | 798 ± 4
327.6 K, 17060 kPa, x1 = 0.1024 | 909 ± 4
327.6 K, 17130 kPa, x1 = 0.0102 | 771 ± 4
327.6 K, 17210 kPa, x1 = 0.0247 | 802 ± 4
327.6 K, 17210 kPa, x1 = 0.1024 | 911 ± 4
327.6 K, 17330 kPa, x1 = 0.0487 | 846 ± 4
327.6 K, 17390 kPa, x1 = 0.1024 | 912 ± 4
327.6 K, 17490 kPa, x1 = 0.1024 | 913 ± 4
327.6 K, 17600 kPa, x1 = 0.0247 | 808 ± 4
327.6 K, 17620 kPa, x1 = 0.1024 | 914 ± 4
327.6 K, 17740 kPa, x1 = 0.0487 | 851 ± 4
327.6 K, 17750 kPa, x1 = 0.1024 | 916 ± 4
327.6 K, 17850 kPa, x1 = 0.0102 | 786 ± 4
327.6 K, 17870 kPa, x1 = 0.0247 | 813 ± 4
327.6 K, 17960 kPa, x1 = 0.1024 | 918 ± 4
327.6 K, 18080 kPa, x1 = 0.1024 | 919 ± 4
327.6 K, 18200 kPa, x1 = 0.0487 | 857 ± 4
327.6 K, 18230 kPa, x1 = 0.1024 | 920 ± 4
327.6 K, 18380 kPa, x1 = 0.0102 | 795 ± 4
327.6 K, 18380 kPa, x1 = 0.1024 | 922 ± 4
327.6 K, 18580 kPa, x1 = 0.1024 | 923 ± 4
327.6 K, 18690 kPa, x1 = 0.0487 | 863 ± 4
327.6 K, 18770 kPa, x1 = 0.1024 | 924 ± 4
327.6 K, 18840 kPa, x1 = 0.0102 | 802 ± 4
327.6 K, 18940 kPa, x1 = 0.1024 | 925 ± 4
332.4 K, 12410 kPa, x1 = 0.0102 | 539 ± 4
332.4 K, 12550 kPa, x1 = 0.0102 | 548 ± 4
332.4 K, 12670 kPa, x1 = 0.0102 | 558 ± 4
332.4 K, 12820 kPa, x1 = 0.0102 | 568 ± 4
332.4 K, 12980 kPa, x1 = 0.0102 | 578 ± 4
332.4 K, 13160 kPa, x1 = 0.0102 | 589 ± 4
